Results: ChEMBL document CHEMBL1201862, “PubChem BioAssay data set” (2004)
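96-well plates; 48 h exposure; 5 concentrations. Endpoints by linear interpolation between flanking doses. Not reached: highest tested concentration assigned. GI50 = concentration required for 50% inhibition of growth.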 The source made the active and inactive calls. Cut-off read from the data, not from the text of the source: active = GI50 up to about 1.1 µM and inactive = higher.

Tests used:
Test in all cases: NCI-60 cell line screen, 48 h
MDA-N = test system: MDA-N
BT-549 = test system: BT-549
HCC 2998 = test system: HCC 2998
COLO 205 = test system: COLO 205
MDA-MB-231 = test system: MDA-MB-231
PC-3 = test system: PC-3
SF-268 = test system: SF-268
OVCAR-8 = test system: OVCAR-8
Malme-3M = test system: Malme-3M
NCI-H226 = test system: NCI-H226
MDA-MB-435 = test system: MDA-MB-435
UO-31 = test system: UO-31
SN12C = test system: SN12C
DU-145 = test system: DU-145
MCF7 = test system: MCF7
M14 = test system: M14
RXF 393 = test system: RXF 393
SF-539 = test system: SF-539
HL-60 = test system: HL-60
HOP-62 = test system: HOP-62

| Structure (SMILES) | GI50 (MDA-N) | GI50 (BT-549) | GI50 (HCC 2998) | GI50 (COLO 205) | GI50 (MDA-MB-231) | GI50 (PC-3) | GI50 (SF-268) | GI50 (OVCAR-8) | GI50 (Malme-3M) | GI50 (NCI-H226) | GI50 (MDA-MB-435) | GI50 (UO-31) | GI50 (SN12C) | GI50 (DU-145) | GI50 (MCF7) | GI50 (M14) | GI50 (RXF 393) | GI50 (SF-539) | GI50 (HL-60) | GI50 (HOP-62) |
| --- | --- | --- | --- | --- | --- | --- | --- | --- | --- | --- | --- | --- | --- | --- | --- | --- | --- | --- | --- | --- |
| CN(C)CCN1C(=O)N(CCN(C)C)c2c3cc(O)ccc3nc3c([N+](=O)[O-])ccc1c23 | 13 µM (inactive) | 19.8 µM (inactive) | 8.73 µM (inactive) | 10.4 µM (inactive) | 10.5 µM (inactive) | 8.63 µM (inactive) | 8.47 µM (inactive) | 5.55 µM (inactive) | 15.8 µM (inactive) | 12.6 µM (inactive) | 14.8 µM (inactive) | 16.7 µM (inactive) | 9.2 µM (inactive) | 10.7 µM (inactive) | – | – | – | – | – | – |
| C=C1C(C)C2C(Cc3ccccc3)NC(=O)C23C(OC(C)=O)/C=C/C(C)(O)CC(C)C/C=C/C3C1O (centres undefined) | > 100 µM (inactive) | 2.67 µM (inactive) | 16.1 µM (inactive) | 0.104 µM (active) | 0.222 µM (active) | – | 0.519 µM (active) | 54.6 µM (inactive) | 28.4 µM (inactive) | 0.728 µM (active) | 32.9 µM (inactive) | 0.0618 µM (active) | 44.3 µM (inactive) | > 100 µM (inactive) | 6.56 µM (inactive) | 99.1 µM (inactive) | 0.0394 µM (active) | 0.0836 µM (active) | 5.02 µM (inactive) | 0.0435 µM (active) |
| COc1cc(/C=C2\N=C(c3ccccc3)N(c3cc4cc(Sc5ccccc5)ccc4[nH]3)C2=O)cc(OC)c1OC | 3.72 µM (inactive) | 9.42 µM (inactive) | 12.7 µM (inactive) | 11.3 µM (inactive) | – | – | 2.16 µM (inactive) | 12.6 µM (inactive) | 2.96 µM (inactive) | 12.2 µM (inactive) | 3.84 µM (inactive) | 14.3 µM (inactive) | 15.2 µM (inactive) | 15.2 µM (inactive) | 11.5 µM (inactive) | 11.4 µM (inactive) | 10.1 µM (inactive) | 12.3 µM (inactive) | 14.6 µM (inactive) | 15 µM (inactive) |
| CC1C2Cc3ccc(O)cc3C1(C)CCN2C (centres undefined) | > 100 µM (inactive) | – | > 100 µM (inactive) | > 100 µM (inactive) | > 100 µM (inactive) | > 100 µM (inactive) | > 100 µM (inactive) | > 100 µM (inactive) | > 100 µM (inactive) | > 100 µM (inactive) | > 100 µM (inactive) | > 100 µM (inactive) | > 100 µM (inactive) | > 100 µM (inactive) | > 100 µM (inactive) | > 100 µM (inactive) | > 100 µM (inactive) | > 100 µM (inactive) | > 100 µM (inactive) | > 100 µM (inactive) |
| CC12CC(c3ccccc3O1)C(C(=O)Nc1ccc(Cl)cc1Cl)C(=O)N2 (centres undefined) | > 100 µM (inactive) | 89.3 µM (inactive) | 49.1 µM (inactive) | 64.6 µM (inactive) | – | 44 µM (inactive) | 33.8 µM (inactive) | 14.9 µM (inactive) | 39 µM (inactive) | – | 67.1 µM (inactive) | 19.2 µM (inactive) | – | 27.6 µM (inactive) | > 100 µM (inactive) | 18 µM (inactive) | – | 45.4 µM (inactive) | 3.34 µM (inactive) | 20.1 µM (inactive) |
| O=C(NCCC1CN(S(=O)(=O)C(F)(F)F)c2ccccc21)OCc1ccccc1 (centres undefined) | – | > 100 µM (inactive) | > 100 µM (inactive) | > 100 µM (inactive) | > 100 µM (inactive) | > 100 µM (inactive) | > 100 µM (inactive) | > 100 µM (inactive) | 12 µM (inactive) | – | > 100 µM (inactive) | > 100 µM (inactive) | – | > 100 µM (inactive) | > 100 µM (inactive) | > 100 µM (inactive) | > 100 µM (inactive) | – | – | > 100 µM (inactive) |
| CN1CCCCC(C#N)(c2ccccc2)CC1 (centres undefined) | > 100 µM (inactive) | – | > 100 µM (inactive) | > 100 µM (inactive) | – | > 100 µM (inactive) | > 100 µM (inactive) | > 100 µM (inactive) | > 100 µM (inactive) | – | – | > 100 µM (inactive) | – | > 100 µM (inactive) | > 100 µM (inactive) | > 100 µM (inactive) | > 100 µM (inactive) | – | > 100 µM (inactive) | > 100 µM (inactive) |
| CC(=O)N[C@@H](Cc1ccc(O)cn1)C(=O)NCc1cccc(F)c1 | > 100 µM (inactive) | > 100 µM (inactive) | > 100 µM (inactive) | > 100 µM (inactive) | – | > 100 µM (inactive) | > 100 µM (inactive) | – | > 100 µM (inactive) | > 100 µM (inactive) | > 100 µM (inactive) | > 100 µM (inactive) | > 100 µM (inactive) | > 100 µM (inactive) | > 100 µM (inactive) | > 100 µM (inactive) | > 100 µM (inactive) | > 100 µM (inactive) | > 100 µM (inactive) | > 100 µM (inactive) |
| C=C(C)[C@@]1(O[Si](C)(C)C)CCCC[C@@H]1CC(Sc1ccccc1)Sc1ccccc1 | 15.4 µM (inactive) | – | 15.8 µM (inactive) | 19.9 µM (inactive) | 16.8 µM (inactive) | 13.2 µM (inactive) | 14.8 µM (inactive) | 16.1 µM (inactive) | 12.1 µM (inactive) | 16.1 µM (inactive) | 15.6 µM (inactive) | 13.8 µM (inactive) | – | 15 µM (inactive) | 12 µM (inactive) | 14.9 µM (inactive) | 10.8 µM (inactive) | 10.2 µM (inactive) | 16.7 µM (inactive) | 13.8 µM (inactive) |
| CC(=O)OCC1OC(n2c3c(c(-c4ccco4)c(C#N)c2=S)CCCC3)C(OC(C)=O)C(OC(C)=O)C1OC(C)=O (centres undefined) | > 31.6 µM (inactive) | – | > 10 µM (inactive) | > 31.6 µM (inactive) | 29.6 µM (inactive) | > 10 µM (inactive) | 13.5 µM (inactive) | 31.6 µM (inactive) | > 31.6 µM (inactive) | 21.9 µM (inactive) | > 100 µM (inactive) | 22.6 µM (inactive) | > 31.6 µM (inactive) | > 31.6 µM (inactive) | > 76.2 µM (inactive) | > 100 µM (inactive) | > 10 µM (inactive) | 17.6 µM (inactive) | > 10 µM (inactive) | 13.3 µM (inactive) |
| C=CC1(c2ccc(-c3ccccc3)cc2)OCCO1 | 50.9 µM (inactive) | – | 63.7 µM (inactive) | 31.3 µM (inactive) | > 100 µM (inactive) | 35 µM (inactive) | > 100 µM (inactive) | > 100 µM (inactive) | 42.8 µM (inactive) | 22.9 µM (inactive) | 61.2 µM (inactive) | > 100 µM (inactive) | 76.2 µM (inactive) | > 100 µM (inactive) | 54.6 µM (inactive) | 59.7 µM (inactive) | 39.4 µM (inactive) | > 100 µM (inactive) | – | > 100 µM (inactive) |
| CCCCCCCCCCCCOCC1(COCCCCCCCCCCCC)COC(c2ccc(N)cc2)OC1 | > 100 µM (inactive) | – | > 100 µM (inactive) | – | > 100 µM (inactive) | > 100 µM (inactive) | > 100 µM (inactive) | > 100 µM (inactive) | > 100 µM (inactive) | > 100 µM (inactive) | > 100 µM (inactive) | > 100 µM (inactive) | > 100 µM (inactive) | > 100 µM (inactive) | > 100 µM (inactive) | > 100 µM (inactive) | – | > 100 µM (inactive) | – | > 100 µM (inactive) |
| COc1ccccc1C1(c2c(OC(C)C)c(=O)c2=O)SCCCS1 | > 100 µM (inactive) | 72.6 µM (inactive) | – | > 100 µM (inactive) | > 100 µM (inactive) | > 100 µM (inactive) | > 100 µM (inactive) | > 100 µM (inactive) | – | > 100 µM (inactive) | > 100 µM (inactive) | > 100 µM (inactive) | > 100 µM (inactive) | > 100 µM (inactive) | > 100 µM (inactive) | > 100 µM (inactive) | > 100 µM (inactive) | > 100 µM (inactive) | > 100 µM (inactive) | > 100 µM (inactive) |
| CC/C(=C\c1ccc(Cl)c(Cl)c1)[N+](=O)[O-] | – | – | 1.7 µM (inactive) | 1.72 µM (inactive) | 2.53 µM (inactive) | 2.23 µM (inactive) | 2.03 µM (inactive) | 1.68 µM (inactive) | 1.92 µM (inactive) | 2.23 µM (inactive) | 1.71 µM (inactive) | 1.88 µM (inactive) | 2.09 µM (inactive) | 1.86 µM (inactive) | 1.15 µM (inactive) | 1.45 µM (inactive) | – | 1.89 µM (inactive) | 1.18 µM (inactive) | 2.96 µM (inactive) |
| COC(=O)C(/C(=N/NC(=O)c1ccncc1)C(=O)Nc1ccccc1OC)c1nc2ccc(Cl)cc2nc1O (centres undefined) | 47.2 µM (inactive) | > 100 µM (inactive) | – | – | > 100 µM (inactive) | > 100 µM (inactive) | > 100 µM (inactive) | > 100 µM (inactive) | > 100 µM (inactive) | 22.2 µM (inactive) | 44.3 µM (inactive) | 47 µM (inactive) | > 100 µM (inactive) | – | > 100 µM (inactive) | > 100 µM (inactive) | > 100 µM (inactive) | > 100 µM (inactive) | > 100 µM (inactive) | > 100 µM (inactive) |
| CC(CNC(=O)c1ccccc1)(CNC(=O)c1ccccc1)[N+](=O)[O-] | > 100 µM (inactive) | > 100 µM (inactive) | – | > 100 µM (inactive) | > 100 µM (inactive) | > 100 µM (inactive) | > 100 µM (inactive) | > 100 µM (inactive) | > 100 µM (inactive) | > 100 µM (inactive) | > 100 µM (inactive) | 23.8 µM (inactive) | > 100 µM (inactive) | > 100 µM (inactive) | > 100 µM (inactive) | > 100 µM (inactive) | > 100 µM (inactive) | > 100 µM (inactive) | > 100 µM (inactive) | – |
